Measurements reported in article PMC9629855, “Development of ASIC1a ligand-gated ion channel drug screening assays across multiple automated patch clamp platforms” (Frontiers in Molecular Neuroscience, 2022).
“And” between values parts separate entries of the source, which are not always exact repeats. Identical values can stand only once. Like-named read-outs stand apart in the source and are kept apart here. Bridges are numbered along the chain shown (N, C = ends). Where no end group is shown, it is not given here.

Experiments:
ASIC1a = tested on: ASIC1a; parameters: method as in Nagaeva et al., 2016; details: ref Nagaeva et al., 2016; cited from earlier work
hASIC1a [1] = molecular target: T1, hASIC1a (Homo sapiens, UniProt P78348); experiment: cell-based; parameters: host or cells: CHO (tetracycline-inducible); details: pH 6.5 agonist, QPatch 48 single hole; for IC50: 2 min pre-incubation
T1 sequence (P78348 1-528): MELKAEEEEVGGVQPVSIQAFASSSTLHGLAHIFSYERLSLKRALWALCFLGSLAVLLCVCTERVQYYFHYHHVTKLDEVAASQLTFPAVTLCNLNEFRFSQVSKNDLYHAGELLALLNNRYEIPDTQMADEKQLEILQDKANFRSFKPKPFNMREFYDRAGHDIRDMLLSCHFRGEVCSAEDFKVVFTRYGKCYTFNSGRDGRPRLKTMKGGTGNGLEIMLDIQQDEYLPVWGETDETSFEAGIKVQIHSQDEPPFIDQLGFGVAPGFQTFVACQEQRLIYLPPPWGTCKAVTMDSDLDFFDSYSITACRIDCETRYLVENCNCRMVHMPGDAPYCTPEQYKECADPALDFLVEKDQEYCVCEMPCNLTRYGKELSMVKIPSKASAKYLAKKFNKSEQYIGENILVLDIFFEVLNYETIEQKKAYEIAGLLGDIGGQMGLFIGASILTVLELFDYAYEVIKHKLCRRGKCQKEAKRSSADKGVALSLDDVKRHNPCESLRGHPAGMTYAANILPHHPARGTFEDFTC
Method: (§1) CHO hASIC1a cells were cultured according to vendor instructions (B-SYS GmbH) and HEK cells using standard in-house methods. Both cell lines were harvested using optimized protocols and re-suspended in serum-free media (Gibco CHO-S-SFM from Thermo Fisher Scientific for CHO cells, and Ex-Cell 302 from Merck Sigma-Aldrich for HEK cells) to obtain a suspension of cells with smooth membranes and little debris, before transfer to the automated cell hotel consisting of a 60 ml plastic container (Sophion SB2050) and a magnetic stir bar to prevent cell clumping. An aliquot of cells is then aspirated into a 1 ml microcentrifuge tube and spun down (typically 150 g for 2.5 min) and the supernatant discarded before a user-defined volume of external solution is added by the robot and the cells re-suspended to achieve the desired final cell suspension density before application to primed QPlates. Cell capture, sealing and whole-cell access was achieved using optimized QPatch protocols before currents were recorded using a holding potential of −60 mV. […] Cells were washed three times with external pH 7.3 solution (5 μl) between applications of activating acidic solution to establish a stable ASIC1a current baseline. […] Each concentration of reference compound was applied to each cell before (i.e., during each pH 7.3 application period) and during each pH stimulus (IC50 mode). Thus, each concentration of test compound was pre-incubated with cells for at least 2 min before, and then during each acidic solution challenge, before wash-off in a neutral pH 7.3 solution that contained the next concentration of the same compound. Cells were allowed at least 2 min between applications of acidic solution to enable ASIC1a receptors to recover from desensitization.
(§2) Concentration-response xC50 curves from Patchliner and QPatch 48 experiments were calculated by plotting %inhibition (antagonists) or activation (pH) data against concentration in Prism software (GraphPad), using the variable sigmoidal dose-response function to fit the Hill equation with theoretical minimum block of 0% and maximum block of 100% and a free constant for Hill slope.
In addition, this protocol is designed to avoid tachyphylaxis associated with a more acidic pH stimulus, and it allows the development of a ligand-gated ASIC1a channel assay that can distinguish between agonists, partial agonists and antagonists. […] Compounds were tested using the cumulative concentration-response assay format shown in Figure 5A, which includes a 2 min pre-incubation period for each concentration to allow test samples to reach and equilibrate with their binding site(s) in the pore or large extracellular binding domain of ASIC1 receptor trimers. Agonist effects can also be detected during this period as membrane current data is recorded after every liquid addition. […] Mean inhibition data for each test sample is plotted against Log[compound] and fit with a concentration-response function.

[2] = tested on: "ASIC1-like" pH-activated currents in rat dorsal root ganglion neurons; parameters: method as in Dubé et al., 2005; details: ref Dubé et al., 2005, read-out: Literature IC50; cited from earlier work
[3] = tested on: endogenous proton-activated currents in HEK cells; experiment: cells; type: cell-based, human; details: HEK cells
Method: as §1
as §2, with “slope. Inward current amplitudes were compared to the response to a control pH application (typically pH 6.5) prior to antagonist application or excitation by solutions of different pH to enable calculation of %inhibition or %activation for each cell.” for “slope.”
To quickly confirm a previous publication that HEK cells express endogenous ASIC1a receptor channels and assess the suitability of this cell system for drug discovery screening on APC platforms, we utilized the medium throughput QPatch 48 device. The QPatch uses 48 well microfluidic planar borosilicate chips and coated titanium pipette tips to make whole-cell recordings and sequentially apply small liquid volumes to enable rapid activation followed by slower deactivation (wash-off) of ligand-gated ionotropic responses. HEK cells were voltage-clamped at −60 mV and maintained in external solution at pH 7.4 to avoid steady-state desensitization of ASIC1 receptor channels. Cells were stimulated by external solutions with pH values ranging between 7.0 and 5.5 that evoked rapidly activating inward currents, followed by wash-off in pH 7.4 solution.

hASIC1a [4] = molecular target: T1, hASIC1a; parameters: host or cells: CHO; details: ref Diochot et al., 2012, cited from earlier work
rat ASIC1a = tested on: rat ASIC1a; parameters: method as in Diochot et al., 2012; details: ref Diochot et al., 2012, read-out: IC50 potency for the rat ortholog; cited from earlier work
TRPV1 receptor channels = tested on: TRPV1 receptor channels; parameters: method as in Diochot et al., 2012; details: ref Diochot et al., 2012; cited from earlier work
hASIC1a [5] = molecular target: T1, hASIC1a; experiment: QPatch 48 APC, CHO hASIC1a, multi-hole (10 hole X-plate) recordings; type: cell-based; parameters: host or cells: CHO (tetracycline-inducible)
Method: as §1, §2
Before employing a more efficient multi-hole assay it is important to establish that this variant of the APC whole-cell recording format returns the same biophysics and pharmacology as single cell recordings. To this end we ran some of the reference compounds detailed above in 10 hole “X-plate” mode on the QPatch 48.

CC12CC3CC(C)(C1)CC(N)(C3)C2 [Memantine]
Literature inhibition at 500 μM (ASIC1a): 31% at 500 μM
IC50 (hASIC1a [1]; read-out: IC50 potency): 315000 nM
Hill slope (hASIC1a [1]): 1.1

NC12CC3CC(CC(C3)C1)C2 [Amantadine]
IC50 (hASIC1a [1]; read-out: IC50 potency): 510000 nM
Hill slope (hASIC1a [1]): 0.9

CC(C)C1c2cc(C3CC3c3ccc4cc(C(=N)N)ccc4c3)ccc2CCN1C (centres unmarked) [A-317567]
IC50 [2]: 2000 nM
IC50 (hASIC1a [1]; read-out: IC50 potency): 660 nM
Hill slope (hASIC1a [1]): 0.9

N.N.N.N.N.N.N.N.N.N.N.N.N.N.[Cl-].[Cl-].[Cl-].[Cl-].[Cl-].[Cl-].[O-2].[O-2].[Ru+3].[Ru+3].[Ru+4] [Ruthenium Red]
inhibition of amplitude of currents activated by pH 6.5 ([3]; 1 μM Ruthenium Red): 12 ± 7%

Mambalgin-1 (LKCYQHGKVVTCHRDMKFCYHNTGMPFRNLKLILQGCSSSCSETENNKCCSTDRCNK; ends and bridges not checked; cysteine pairing not given here; UniProt P0DKR6 22-78, looked up) [snake toxin differing from Mambalgin-3 at one non-critical amino acid residue]
IC50 (hASIC1a [4]; Sun et al., 2018, read-out: quoted values against human ASIC1a channels): 127 nM and 197 nM

LKCYQHGKVVTCHRDMKFCYHNIGMPFRNLKLILQGCSSSCSETENNKCCSTDRCNK (disulfide 3-19, 12-37, 41-49, 50-55) [Mambalgin-3]
block of endogenous proton-activated currents ([3]; 300 nM): ~75%
potentiation of endogenous pH-evoked responses [3]: no evidence for such modulation
IC50 ([3]; pH 6.5 activation, QPatch 48, read-out: cumulative IC50): 119 nM
IC50 (rat ASIC1a): 17 to 55 nM
inhibition of TRPV1 receptor channels (TRPV1 receptor channels): does not inhibit
IC50 (hASIC1a [4]; read-out: Literature IC50): 127 nM
IC50 (hASIC1a [1]; IC50 potency): 160 nM
Hill slope (hASIC1a [1]): 1.8
IC50 (hASIC1a [5]): 160 nM
Hill slope (Hn) (hASIC1a [5]; multi-hole recordings, QPatch 48): 1.80
